According to ChEMBL document CHEMBL1201862, “PubChem BioAssay data set” (2004):
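Method: 48-hour compound exposure of cells in 96-well plates, five concentrations, linear interpolation of endpoints. The concentration for 50% growth inhibition is given as GI50.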 The source made the active and inactive calls. No stated cut-off is given here; in the data, active = GI50 up to about 1.1 µM and inactive = higher.

Columns and labels:
Assay in all cases: NCI-60 cell line screen, 48 h
CCRF-CEM = tested on: CCRF-CEM
SW-620 = tested on: SW-620
MDA-MB-231 = tested on: MDA-MB-231
MDA-N = tested on: MDA-N
U-251 = tested on: U-251
T47D = tested on: T47D
HCT-15 = tested on: HCT-15
SK-MEL-28 = tested on: SK-MEL-28
KM12 = tested on: KM12
SF-539 = tested on: SF-539
A498 = tested on: A498
LOX IMVI = tested on: LOX IMVI
RPMI-8226 = tested on: RPMI-8226
HT-29 = tested on: HT-29
M14 = tested on: M14
SNB-75 = tested on: SNB-75
786-0 = tested on: 786-0
SR = tested on: SR
NCI-H522 = tested on: NCI-H522
Malme-3M = tested on: Malme-3M

| Structure (SMILES) | GI50 (CCRF-CEM) | GI50 (SW-620) | GI50 (MDA-MB-231) | GI50 (MDA-N) | GI50 (U-251) | GI50 (T47D) | GI50 (HCT-15) [µM] | GI50 (SK-MEL-28) | GI50 (KM12) | GI50 (SF-539) | GI50 (A498) | GI50 (LOX IMVI) | GI50 (RPMI-8226) | GI50 (HT-29) | GI50 (M14) | GI50 (SNB-75) | GI50 (786-0) | GI50 (SR) | GI50 (NCI-H522) | GI50 (Malme-3M) |
| --- | --- | --- | --- | --- | --- | --- | --- | --- | --- | --- | --- | --- | --- | --- | --- | --- | --- | --- | --- | --- |
| O=C(N/C(=C\NC1=NCCS1)C(=O)N1CSC[C@@H]1C(=O)O)c1ccccc1 | > 100 µM (inactive) | > 100 µM (inactive) | > 100 µM (inactive) | > 100 µM (inactive) | > 100 µM (inactive) | > 100 µM (inactive) | > 100 | > 100 µM (inactive) | > 100 µM (inactive) | > 100 µM (inactive) | > 100 µM (inactive) | > 100 µM (inactive) | > 100 µM (inactive) | > 100 µM (inactive) | > 100 µM (inactive) | > 100 µM (inactive) | 77.8 µM (inactive) | – | – | – |
| O=C(NN1C(=O)c2ccccc2C1=O)c1ccccc1Nc1ccccc1C(=O)NN1C(=O)c2ccccc2C1=O | > 100 µM (inactive) | > 100 µM (inactive) | > 100 µM (inactive) | > 100 µM (inactive) | > 100 µM (inactive) | – | > 100 | > 100 µM (inactive) | > 100 µM (inactive) | > 100 µM (inactive) | – | > 100 µM (inactive) | 49.2 µM (inactive) | > 100 µM (inactive) | > 100 µM (inactive) | > 100 µM (inactive) | > 100 µM (inactive) | > 100 µM (inactive) | > 100 µM (inactive) | > 100 µM (inactive) |
| CC(=O)Nc1ccc(NNc2cc(=O)n(C)c(=O)[nH]2)cc1 | > 10 µM (inactive) | 2.98 µM (inactive) | 12.1 µM (inactive) | 11 µM (inactive) | 11.7 µM (inactive) | – | 8.55 | 11.9 µM (inactive) | 12 µM (inactive) | 9.73 µM (inactive) | 23.2 µM (inactive) | 2.56 µM (inactive) | 2.84 µM (inactive) | 2.02 µM (inactive) | 8.89 µM (inactive) | – | 2.71 µM (inactive) | 3.47 µM (inactive) | – | 12.4 µM (inactive) |
| Cn1cc(NC(=O)c2cc(NC(=O)CNC(=N)N)cn2C)cc1C(=O)NCCC(=N)N [NETROPSIN CHLORIDE] | > 100 µM (inactive) | > 100 µM (inactive) | – | > 100 µM (inactive) | > 100 µM (inactive) | > 100 µM (inactive) | > 100 | > 100 µM (inactive) | > 100 µM (inactive) | > 100 µM (inactive) | > 100 µM (inactive) | > 100 µM (inactive) | > 100 µM (inactive) | > 100 µM (inactive) | > 100 µM (inactive) | – | > 100 µM (inactive) | > 100 µM (inactive) | > 100 µM (inactive) | 41.7 µM (inactive) |
| Cc1cccnc1N/C=C1\C(=O)NC(=O)N(C)C1=O | – | > 100 µM (inactive) | – | > 100 µM (inactive) | > 100 µM (inactive) | 55.7 µM (inactive) | > 100 | > 100 µM (inactive) | > 100 µM (inactive) | > 100 µM (inactive) | 12.3 µM (inactive) | 93.8 µM (inactive) | – | > 100 µM (inactive) | > 100 µM (inactive) | 35.9 µM (inactive) | > 100 µM (inactive) | – | 1.69 µM (inactive) | 13 µM (inactive) |
| COC1(OC)CCCCCCCCC(OC)(OC)CCCCCCCC1 | – | > 100 µM (inactive) | – | > 100 µM (inactive) | > 100 µM (inactive) | > 100 µM (inactive) | > 100 | > 100 µM (inactive) | > 100 µM (inactive) | > 100 µM (inactive) | > 100 µM (inactive) | > 100 µM (inactive) | – | > 100 µM (inactive) | > 100 µM (inactive) | > 100 µM (inactive) | > 100 µM (inactive) | > 100 µM (inactive) | > 100 µM (inactive) | > 100 µM (inactive) |
